Experiments:
[1] = tested on: rats subjected to MCAO; experiment: Post Stroke Recovery MCAO Model: Tray Reaching; type: in vivo, rat; settings: 7 and 14 days after stroke, compared with vehicle treatment
From the text: Adult male Wistar rats are pre-trained on a battery of behavioral tests including: tray reach, gridwalk, forelimb asymmetry (cylinder bracing), forelimb inhibition (swim test) (see below for detailed description of tests). Following pre-stroke behavioral assessment the rats receive surgery during which a stroke is induced. The rats are pseudo-randomly divided into 5 equal groups (n=12) ensuring an equal number of right and left strokes within each treatment group. The first group receives sham surgery with vehicle as treatment. Administration of the test compound and vehicle (dose, route, timing) is determined by the sponsor. The core body temperature is maintained at 37° C. (+/−1°).
Following surgery all animals are behaviorally assessed 1, 7, and 14 d post-stroke. At the conclusion of behavioral assessment all rats undergo an MRI to determine infarct volume. […]
Each animal is weighed (average weights were 340 g) and then anesthetized with isoflurane (4% isoflurane carried on 2 l/min medical grade oxygen to induce surgical plane and then 2% with 2 l/min oxygen to maintain a surgical plane). […] Rectal temperature is monitored and maintained at 37 C+/−1° C. for the duration of the surgery and until the rat is awake and mobile (approximately 3 hr). […]
Forepaw use is measured with a procedure that is adapted from the method devised by Whishaw, O'Connor, and Dunnett (1986). […]

[2] = tested on: rats subjected to MCAO; experiment: Post Stroke Recovery MCAO Model: Gridwalk; type: in vivo, rat; settings: 7 and 14 days after stroke
From the text: Adult male Wistar rats are pre-trained on a battery of behavioral tests including: tray reach, […], forelimb asymmetry (cylinder bracing), forelimb inhibition (swim test) (see below for detailed description of tests). Following pre-stroke behavioral assessment the rats receive surgery during which a stroke is induced. The rats are pseudo-randomly divided into 5 equal groups (n=12) ensuring an equal number of right and left strokes within each treatment group. The first group receives sham surgery with vehicle as treatment. Administration of the test compound and vehicle (dose, route, timing) is determined by the sponsor. The core body temperature is maintained at 37° C. (+/-1°). Following surgery all animals are behaviorally assessed 1, 7, and 14 d post-stroke. At the conclusion of behavioral assessment all rats undergo an MRI to determine infarct volume. […] Rectal temperature is monitored and maintained at 37 C+/-1° C. for the duration of the surgery and until the rat is awake and mobile (approximately 3 hr). […] Forelimb and hindlimb coordination are measured using an apparatus that consists of two Plexiglas panels 1 m long and 25 cm wide (5 mm thick) with holes drilled 1 cm apart along one long edge. […]

Cc1nc(-c2ccccc2Cl)nc(Nc2n[nH]c3ncc(F)cc23)c1C [Compound I-1, N-(2-(2-chlorophenyl)-5,6-dimethylpyrimidin-4-yl)-5-fluoro-1H-pyrazolo[3,4-b]pyridin-3-amine]
deficit in reaching performance (tray reaching) [1]: significantly ameliorated this deficit
deficit in gridwalk [2]: significantly ameliorated this deficit

— US8518953B2, “Aminopyrimidines useful as inhibitors of protein kinases” (Vertex Pharmaceuticals Incorporated, priority 2007, dated 2013)
